# Assay results taken from patent US10343971B2, “Crotonates having use in perfumery” (GIVAUDAN SA, priority 2016, dated 2019).
# pIC50: −log10 of the molar value.
# Key:
# [1] = Enzymatic hydrolysis (stability) in human liver S9 fractions; assay type: in vitro ADME; details: 100 μM compound, human liver S9 0.166 mg/ml, phosphate buffer pH 7.4, active S9 fractions
# Description: Enzymes of the nasal cavity are not easily available, but the nasal cavity contains similar enzymatic activities as found in the liver, namely carboxylesterases (J. L. Lewis, K. J. Nikula, R. Novak, A. R. Dahl, Anat Rec 1994, 239). Therefore the different compounds of examples 1-3 were compared for enzymatic hydrolysis using human liver […]. Chemicals were dissolved to a final concentration of 100 μM in a total volume of 600 μl of phosphate buffer (100 mM, pH 7.4, containing 1.15% potassium chloride and 1 mM of EDTA). S9 fractions from humans at a final level of 0.166 mg/ml were added (Corning® Gentest™ Human Liver S9 Pooled Donors, 20 mg/mL protein content, Product #452961;), Lot 22877,). As control experiment, equal levels of heat inactivated S9 fractions (incubated for 10 min at 99° C.) were added to parallel samples. The samples were incubated for different time periods and then mixed in 2 ml glass vials with 300 μl of Methyl-tert-butylether (MTBE) containing as internal standard 1 ppm of dodecane. Samples were extracted on a vortex mixer for 20 s, and then ca. 200 μl of the supernatant was transferred to conical GC vials and concentrated under a stream of nitrogen. 1 μl of these concentrated extracts were then injected with a splitless injection into an Agilent GC 6890N gas chromatograph equipped with a flame-ionisation detector. The following GC conditions were applied: Column: Rtx −5; 30 m length×0.32 mm internal diameter×0.25 μm film thickness; Carrier gas: Hydrogen; Column flow: 2 mL; Initial temperature of 60° C. held for 2 min, subsequent linear gradient with 10° C. per minute up to a temperature of 240° C. […] To determine calibration curves, dilutions of the test chemicals or of the potentially released alcohols were added to heat inactivated S9 fraction and extracted, concentrated and analysed as described above. All concentrations (in test samples and calibration curves) were determined by normalization to the internal standard. […]
# [2] = test system: KeratinoSens cell line (Luciferase gene under the control of the ARE-element of the gene AKR1C2); experiment: KeratinoSens assay for skin sensitization: luciferase gene induction; assay type: cell-based; details: for Concentration for 1.5-fold gene induction (EC 1.5 in μM) / Imax (fold maximal gene induction): 48 h incubation, 0.98 to 2000 μM; for rating of skin sensitization by the KeratinoSens assay: result in words; for Imax (fold maximal gene induction): threshold 1.5-fold
# Description: Compounds were tested using the commercial KeratinoSens™ assay for skin sensitization.
# (§1) The KeratinoSens™ test compares the potential skin sensitization risk of chemicals. The KeratinoSens™ cell line contains a stable insertion of a Luciferase gene under the control of the ARE-element of the gene AKR1C2 and induction of luciferase is indicative of skin sensitization potential (R. Emter, G. Ellis, A. Natsch, Toxicol. Appl. Pharmacol. 2010, 245, 281-290). The assay was performed as described by the OECD test guideline 442d. KeratinoSens cells were grown for 24 h in 96-well plates. The medium was then replaced with medium containing the test chemical and the solvent dimethylsulfoxide (DMSO) at a final level of 1%. Each compound was tested at 12 binary dilutions in the range from 0.98 to 2000 μM. Cells were incubated for 48 h with the test agents, and then luciferase activity and cytotoxicity were determined. This full procedure was repeated three times for each chemical. For each chemical in each repetition and at each concentration, the gene induction compared to DMSO controls and the wells with statistically significant induction over the threshold of 1.5 (i.e. 50% enhanced gene activity) were determined. Furthermore, the maximal fold-induction (Imax) and the EC1.5 value (concentration in μM for induction above the threshold) were calculated. Chemicals are rated as positive (i.e. likely skin-sensitizers) in the assay if the following three criteria are fulfilled:
# (i) EC1.5 value is below 1000 μM.
# (ii) At the lowest concentration with a gene induction above 1.5 fold, the cellular viability is above 70%.
# (iii) There is an apparent overall dose-response for luciferase induction, which is similar between the repetitions.
# [3] = KeratinoSens assay: cytotoxicity / cellular viability; assay type: cell-based; details: human; 48 h incubation; read-out: Concentration for 50% Cytotoxicity
# Description: as §1, with “fulfilled: […]” for “fulfilled:”
# [4] = test system: test peptide Cor1C-420 (Ac-NKKCDLF); experiment: Peptide reactivity assay (kinetic variant of DPRA, LC-MS); details: 1 mM test chemical, 0.1 mM peptide, 37° C.
# Description: A second method to determine allergenic potential of chemicals is the DPRA direct peptide assay (OECD TG 442c). It is based on the fact that allergenic chemicals must react with a peptide/protein in order to be immunogenic.
# A peptide reactivity assay (A. Natsch, H. Gfeller, Toxicol. Sci. 2008, 106, 464-478) was conducted similarly to the DPRA assay, but including a kinetic measurement to quantify reactivity: The test chemicals were dissolved to a final concentration of 4 mM in acetonitrile and 250 μl of this solution were added to 2 ml HPLC vials. The test peptide Cor1C-420 with the sequence Ac-NKKCDLF (Genscript Inc., Piscataway, N.J., USA), was dissolved at 0.133 mM in 20 mM phosphate buffer at pH 7.5, and 750 μl of this solution were added to each test vial (final concentrations: 1 mM of test chemical and 0.1 mM of peptide in 25% acetonitrile; ratio 1:10 as in the DPRA assay). The samples were incubated for 1-24 h at 37° C. and at regular intervals they were analysed by LC-MS analysis on a VELOS PRO Mass spectrometer (Thermo SCIENTIFIC, San Jose, Calif., U.S.A.) operated in the ESI(+) mode.
# Mass spectra were recorded from 200-2000 amu. […]
# Two endpoints are measured with this assay:
# a) Depletion of the parent peptide (FIG. 3): The mass of the protonated parent peptide is measured and the corresponding peak integrated (% depletion). […]
# KeratinoSens cells = experiment: KeratinoSens assay: cytotoxicity / cellular viability; assay type: cell-based; details: 48 h incubation; read-out: Concentration for 50% Cytotoxicity
# Description: as §1, with “fulfilled: […]” for “fulfilled:”
Compound,cleavage (enzymatic hydrolysis of the ester) by active S9 fractions [1],Concentration for 1.5-fold gene induction (EC 1.5 in μM) [2],rating of skin sensitization by the KeratinoSens assay [2],IC50 at 48 h [3],peptide depletion (consumption of the parent peptide as compared to controls) ([4]; 1-24 h),lower levels of peptide adducts as compared to Damascone Delta and Damascone gamma ([4]; after 1 h),Imax (fold maximal gene induction) [2],concentration at which the luciferase gene is induced [2],pIC50 (KeratinoSens cells)
"C/C=C/C(=O)O[C@@H]1[C@H](C)CCC[C@@H]1C [Example 1, (1s*,2R*,6S*)-2,6-dimethylcyclohexyl (E)-but-2-enoate]",< 3%,No induction,non-sensitizing,86.9 µM,< 10%,> 100,–,–,–
"C/C=C/C(=O)O[C@H]1[C@H](C)CCC[C@@H]1C [Example 3, (1r*,2R*,6S*)-2,6-dimethylcyclohexyl (E)-but-2-enoate]",15%,–,–,–,–,–,–,–,–
"C/C=C/C(=O)OC1[C@H](C)CCC[C@H]1C (relative stereo) [Example 2, (2R*,6R*)-2,6-dimethylcyclohexyl (E)-but-2-enoate]",completely hydrolysed,–,–,–,–,–,–,–,–
"C/C=C/C(=O)O[C@H]1[C@@H](C)C=CCC1(C)C (relative stereo) [Example 6a, (1S*,2S*)-2,6,6-Trimethylcyclohex-3-en-1-yl (E)-but-2-enoate]",–,No induction,–,89.4 µM,–,–,1.13 fold,–,–
"C/C=C/C(=O)C1=C(C)CCCC1(C)C [β-Damascone, (2E)-1-(2′,6′,6′-trimethylcyclohex-1′-en-1′-yl)but-2-en-1-one, reference compound]",–,4.5 µM,significantly sensitizing compound,–,–,–,29.8 fold,4.5 µM,4.25
